Holding throughout (format): cell-based
For assay [1], the system named is YAP/TAZ-TEAD transcription. The experiment in a line: Reporter gene assay for measuring the inhibition of YAP/TAZ-TEAD transcription (TEAD-responsive element luciferase reporter in Hek293T cells). To be noted: Homo sapiens, HEK-293T; Hek293T cells transfected with TEAD-responsive element luciferase reporter, 24 hours incubation. The method, then: Hek293T cells are cultured in DMEM supplemented with 10% fetal bovine serum, Sodium pyruvate, Sodium bicarbonate, L-glutamine. The cells are harvested and transiently transfected with TEAD-responsive element luciferase reporter. Transfected cells are plated in 384-wells plate containing pre-diluted compounds. After 24 hours incubation at 37° C./5% CO2, assay plates were cooled down to RT and levelled to an equal volume per well, prior to the addition of 25 uL luciferase substrate SteadyLite (Perkin Elmer)/well. The plate was shaken for 10 min at 600 rpm, centrifuged for 1 min at 500 rpm and measured with an Envision reader (PerkinElmer). The amount of relative light units produced by the TEAD reporter is used to calculated percent of inhibition.
The percent of reporter inhibition was calculated in the presence of a positive control inhibitor (100% inhibition) versus a condition with the presence of the vehicle basal activity of the reporter (0% inhibition). The ability of a test compound to inhibit this activity was determined as:
Percentage inhibition=[1-((RLU determined in the presence of vehicle−RLU determined for sample with test compound present) divided by (RLU determined in the presence of vehicle−RLU determined for sample with positive control inhibitor))]*100
The activities of example compounds tested are depicted in Table 3. The activity ranges A, B and C refer to IC50 values in the reporter gene assay as follows: “A”: IC50<1 μM; “B”: 1 μM≤IC50≤20 μM and “C”: IC50>20 μM; NT=not tested.

In the next assay the test system is NCl-H2052. The experiment in a line: Mesothelioma cell line proliferation assay (ATPlite), NCl-H2052. The settings on record: Homo sapiens, NCI-H2052, 144 h, NCl-H2052 mesothelioma cells, 6 days incubation. Here is the method: (§1) Mesothelioma cell lines, NCl-H226 and NCl-H2052 (all sourced from the ATCC cell culture collection) are plated in 96-well plates (Corning® 96 Well White Polystyrene Microplate clear flat bottom, white polystyrene (TC-Treated)), at 1500 cells/well in full medium (RPMI 1640 ATCC modification with L-glutamine, HEPES, Phenol Red, Sodium Pyruvate, High glucose, Low sodium bicarbonate and 10% fetal bovine serum). Cells are incubated overnight at 37° C. in an incubator with 5% CO2. Then compounds, dissolved in DMSO, are added in dose-response. Cells are incubated with compound dilutions for another 6 days at 37° C. in an incubator with 5% CO2. Cell viability is quantitated using the ATPlite kit (Perkin-Elmer) and the luminescence is read-out using an Envision instrument (Perkin-Elmer). The amount of relative light units produced using the ATPlite kit is used to calculated percent of inhibition.
(§2) The activities of some example compounds are depicted in Table 4. The activity ranges A, B and C refer to EC50 values in the mesothelioma cell line proliferation assay as described as follows: “A”: EC50<1 μM; “B”: 1 μM≤EC50≤10 μM and “C”: EC50>10 μM; NT: not tested.
A general note: In ATP-based viability assays light output follows the ATP content of the culture.

The next assay has as its system NCl-H226. The experiment in a line: Mesothelioma cell line proliferation assay (ATPlite), NCl-H226. The settings on record: Homo sapiens, NCI-H226, 144 h, NCl-H226 mesothelioma cells, 6 days incubation. The method, then:
as §1, §2

On to `O=C1NCN(c2ccc(C(F)(F)F)cc2)c2ccccc21` [Cpd. No. 1, 1-(4-(trifluoromethyl)phenyl)-2,3-dihydroquinazolin-4(1H)-one], for which the EC50 – broadly, the concentration giving half of the maximal effect – was 1 to 20 µM in assay [1], > 10 µM with NCl-H2052 and > 10 µM in the assay on NCl-H226. `NC(=O)CN1CN(c2ccc(C(F)(F)F)cc2)c2ccccc2C1=O` [Cpd. No. 5, 2-(4-oxo-1-(4-(trifluoromethyl)phenyl)-1,4-dihydroquinazolin-3(2H)-yl)acetamide]: the EC50 in assay [1] was > 20 µM. Still for that read-out and setting: the value for `C=CC(=O)NC1CN(c2ccccc2)c2ccccc2C1=O` (stereo not drawn) [Cpd. No. 7, N-(4-oxo-1-phenyl-1,2,3,4-tetrahydroquinolin-3-yl)acrylamide] was 1 to 20 µM; that for `O=C1c2ccccc2N(c2ccc(C(F)(F)F)cc2)CN1CCCO` [Cpd. No. 2, 3-(3-hydroxypropyl)-1-(4-(trifluoromethyl)phenyl)-2,3-dihydroquinazolin-4(1H)-one] was 1 to 20 µM; that for `CNC(=O)CN1CN(c2ccc(C(F)(F)F)cc2)c2ccccc2C1=O` [Cpd. No. 6, N-methyl-2-(4-oxo-1-(4-(trifluoromethyl)phenyl)-1,4-dihydroquinazolin-3(2H)-yl)acetamide] was > 20 µM. Same read-out and setting: the value for `O=C1c2ccccc2N(c2ccc(C(F)(F)F)cc2)CN1CCO` [Cpd. No. 4, 3-(2-hydroxyethyl)-1-(4-(trifluoromethyl)phenyl)-2,3-dihydroquinazolin-4(1H)-one] was 1 to 20 µM. Still for that read-out and setting: the value for `O=C(O)CN1CN(c2ccc(C(F)(F)F)cc2)c2ccccc2C1=O` [Cpd. No. 3, 2-(4-oxo-1-(4-(trifluoromethyl)phenyl)-1,4-dihydroquinazolin-3(2H)-yl)acetic acid] was 1 to 20 µM.

The record behind these values is patent publication US20230391726A1, “DIHYDROQUINAZOLINONES AND RELATED ANALOGS FOR INHIBITING YAP/TAZ-TEAD” (THE KATHOLIEKE UNIVERSITEIT LEUVEN, priority 2022, published 2023).
